From patent publication US20020038028A1, “7-Hetero-bicyclo[2.2.1]-heptanes” (priority 1998, published 2002)

| melting point [°C] | SMILES |
| --- | --- |
| 235 to 236 | COC(=O)c1ccc(C2CC3CCC2N3)cc1.Cl (centres unmarked) |
| 261.5 to 264.5 | Cl.O=C(O)c1ccc(C2CC3CCC2N3)cc1 (centres unmarked) |
| 198.5 to 201 | Cl.N=C(N)c1ccc(C2CC3CCC2N3)cc1 (centres unmarked) |

The remaining lines, values behind:

| SMILES | melting point [°C] |
| --- | --- |
| Cl.Oc1ccc(C2CC3CCC2N3)cc1 (centres unmarked) | 242.5 to 244 |
| CSc1ccc(C2CC3CCC2N3)cc1.Cl (centres unmarked) | 216.5 to 218 |
